Results as given in patent publication US20230407321A1, “METHOD TO DELIVER CHEMICALS AND NUCLEIC ACIDS TO PLANT CELLS USING CELLULOSE NANOCRYSTALS AS A CARRIER” (BOARD OF TRUSTEES OF THE UNIVERSITY OF ARKANSAS, priority 2022, published 2023).

Legend:
[1] = test system: N. tabacum callus culture; test: Tobacco callus growth on MS media with 2,4-D, CNC or CNC-2,4-D conjugate; format: cell-based, Nicotiana tabacum; details: reduced amount of 2,4-D (0.4 mg/L or equivalent), 35 days in the dark, total fresh weight
Protocol: To understand if CNC can deliver a plant hormone that encourages cell division to plants, CNCs conjugated with 2,4-D were added to MS medium. 2,4-D was selected for conjugation based on the extensive use of this synthetic auxin as both a plant growth regulator commonly employed in tissue cultures and as an active ingredient in commercial herbicides. At a modest dose of 1 mg/L, 2,4-D can act as a positive growth regulator and is commonly used in plant cell cultures. […] To estimate if the conjugation of CNC and 2,4-D can improve the uptake of 2,4-D, the total biomass of callus tissues cultivated on media containing 2,4-D was measured. N. tabacum calli were seeded on media containing either a standard dose of 2,4-D (1 mg/L) or a reduced dose of 2,4-D (0.4 mg/L) both conjugated and non-conjugated with CNC. […]
N. tabacum callus culture that was established by Khodakovskaya et al. was used in experiments. […] Callus growth was on the following mediums was assessed: MS medium (no 2,4-D supplement); MS medium supplemented with reduced dose of 2,4-D (0.4 mg/L); MS medium supplemented only with CNC (0.4 mg/L); MS medium supplemented with non-conjugated CNC (0.4 mg/L) and 2,4-D (0.4 mg/L); and MS medium supplemented with CNC-2,4-D conjugate (with 0.4 mg/L 2,4D). Total produced cell biomass was evaluated by measurement of total fresh weight of callus culture generated in the end of cultivation period.

[2] = test system: Arabidopsis thaliana leaves; test: Confocal microscopy uptake of CNC-DTAF by Arabidopsis leaves; format: cell-based; details: free CNC or DTAF in doses comparable with amounts in the CNC-DTAF conjugate (negative controls), 4 hours
Protocol: To evaluate entry of synthesized CNC-dye conjugates into leaves, 12-day-old Arabidopsis thaliana seedlings were soaked with CNC-DTAF conjugate solution for 4 hours. Additionally, both protoplasts and callus cells of Nicotiana tabacum were incubated with CNC-FITC conjugate for 4 hours, as shown in FIG. 4A. All samples were imaged with confocal microscopy. The fluorescence of CNC-DTAF and CNC-FITC stained samples was digitally measured to determine the difference in signal intensity between conjugate-treated and untreated plant samples.
FIGS. 4B-F show fluorescence intensity images and measured fluorescence intensity (f) of Arabidopsis leaves incubated with water (FIG. 4B), CNC (FIG. 4C), DTAF (FIG. 4D) and CNC-DTAF conjugates (FIG. 4E), for 4 hours.
This observation indicated the ability of CNC to penetrate the cell wall and deliver dye inside the cell.
Leaves of 12-day-old A. thaliana seedlings were soaked in water (control), DTAF solution, CNC solution, or DTAF-CNC solution (1 mg/mL) for 4 hours and then intensively washed with ddH2O to fully remove residual treatments. Both freshly isolated N. tabacum protoplasts and callus cells that were cultivated for 20 days on standard Murashige and Skoog medium (MS medium) were immersed into 1 mg/mL of FITC-CNC conjugate or solution CNC and allowed to incubate for 4 hours. […]

Row | SMILES | cell growth compared to medium with regular dose of 2,4-D (1 mg/L) [1] | fluorescence observed in leaves [2]
1 | O=C(O)COc1ccc(Cl)cc1Cl [2,4-D, 2,4-dichlorophenoxyacetic acid] | suppressed cell growth | 
2 | Cl.O=C1OC2(c3ccc(O)cc3Oc3cc(O)ccc32)c2ccc(Nc3nc(Cl)nc(Cl)n3)cc21 [DTAF, 5-[(4,6-Dichlorotriazin-2-yl)amino]fluorescein hydrochloride] |  | only slight autofluorescence
